{"source": "paper PMC11434739", "about": "“CAVPENET Peptide Inhibits Prostate Cancer Cells Proliferation and Migration through PP1γ-Dependent Inhibition of AKT Signaling” (Pharmaceutics, 2024)", "key": {"[1]": {"test_system": "LnCaP cells", "assay": "Microscopic evaluation of cellular uptake (live-cell imaging)", "format": "cell-based, Human", "conditions": "TAMRA-labeled bioportide 5 µM, 1 h, 37 °C, 5% CO2, phenol red-free RPMI-1640, live-cell fluorescence imaging (EVOS M5000), 3 independent experiments", "description": "(§1) To evaluate the intracellular accumulation of bioportides, PC-3 and LnCaP cells were seeded in a 24-well plate (6.00 × 10^4 and 7.50 × 10^4 cells/well, respectively) and incubated for 24 h at 37 °C under a 5% CO2 atmosphere. After washing cells with phosphate buffered saline (PBS-1×), the growth medium was exchanged for phenol red-free RPMI-1640 medium containing 5µM of TAMRA-labeled CAVPENET or CAVPENET control and incubated for 1 h. After the incubation time, the cells were washed in phenol red-free RPMI-1640 medium and observed by EVOS^TM M5000 Imaging, and photos were obtained. Live-cell imaging was used to avoid fixation artifacts. Untreated cells were included as background reading.\n(§2) Figure 1 Translocation of CAVPENET control and CAVPENET bioportides into (A) PC-3 and (B) LnCaP cells. PCa cells (PC-3 and LnCaP) were incubated with TAMRA-labeled bioportides (5 µM) for 1 h at 37 °C and 5% CO2 atmosphere. Representative images from 3 independent experiments are represented. DIC: differential interference contrast. Scale bar: 150 μm."}, "[2]": {"test_system": "PC-3 cells", "assay": "Microscopic evaluation of cellular uptake (live-cell imaging)", "format": "cell-based, Human", "conditions": "TAMRA-labeled bioportide 5 µM, 1 h, 37 °C, 5% CO2, phenol red-free RPMI-1640, live-cell fluorescence imaging (EVOS M5000), 3 independent experiments", "description": "as §1, §2"}, "[3]": {"conditions": "phase II clinical trial; cited from earlier work", "text": "Despite the apparent anticancer role of CPT1, by reducing the availability of fatty acids, excess CPT1 seems to support PCa cell proliferation by an ROS-mediated stress phenotype. Moreover, a CPT1 knockout was associated with inhibition of PCa cell invasion, becoming an important therapeutic target for PCa. In this context, different compounds have been produced to target this protein [52]. […] Alternatively, ..."}, "[4]": {"test_system": "cancer cells", "conditions": "cited from earlier work; for cancer cell apoptosis: cancer cells", "description": "Targeting protein phosphorylation has long been explored as a strategy for cancer treatment. For instance, several kinase inhibitors have been approved by the FDA as anticancer therapies. In the context of phosphatases, targeting the PP1 active site was one of the earliest proposed approaches for anticancer therapeutic development. The potential therapeutic effect of PP1 inhibitors tautomycin and calyculin A was evaluated in cancer cells."}, "[5]": {"test_system": "several types of cells, including different tumor cell lines", "conditions": "cited from earlier work"}}, "note": "Where a SMILES comes first, the peptide text is derived from it.", "data": [{"compound": "CC[C@H](C)[C@H](NC(=O)[C@H](Cc1ccccc1)NC(=O)[C@H](CC(=O)O)NC(=O)[C@@H](NC(=O)[C@@H](N)C(C)C)C(C)C)C(=O)N[C@@H](CCCCN)C(=O)N[C@@H](CCC(=O)O)C(=O)N[C@@H](CC(=O)O)C(=O)N[C@@H](CCCNC(=N)N)C(=O)N[C@@H](CCC(N)=O)C(=O)N[C@H](C(=O)N[C@@H](CCCCN)C(=O)N[C@H](C(=O)N[C@@H](Cc1c[nH]c2ccccc12)C(=O)N[C@@H](Cc1ccccc1)C(=O)N[C@@H](CCC(N)=O)C(=O)N[C@@H](CC(N)=O)C(=O)N[C@@H](CCCNC(=N)N)C(=O)N[C@@H](CCCNC(=N)N)C(=O)N[C@@H](CCSC)C(=O)N[C@@H](CCCCN)C(=O)N[C@@H](Cc1c[nH]c2ccccc12)C(=O)N[C@@H](CCCCN)C(=O)N[C@@H](CCCCN)C(N)=O)[C@@H](C)CC)[C@@H](C)CC", "note": "[CAVPENET control] (H-VVDFIKEDRQIKIWFQNRRMKWKK-NH2)", "values": [{"measurement": "cellular internalization", "setting": "[1]", "value": "demonstrated cellular internalization"}, {"measurement": "cellular internalization", "setting": "[2]", "value": "demonstrated cellular internalization"}]}, {"compound": "CC[C@H](C)[C@H](NC(=O)[C@H](CCCCN)NC(=O)[C@@H](NC(=O)[C@@H](N)C(C)C)C(C)C)C(=O)N[C@@H](CC(=O)O)C(=O)N[C@@H](Cc1ccccc1)C(=O)N[C@@H](CCC(=O)O)C(=O)N[C@@H](CC(=O)O)C(=O)N[C@@H](CCCNC(=N)N)C(=O)N[C@@H](CCC(N)=O)C(=O)N[C@H](C(=O)N[C@@H](CCCCN)C(=O)N[C@H](C(=O)N[C@@H](Cc1c[nH]c2ccccc12)C(=O)N[C@@H](Cc1ccccc1)C(=O)N[C@@H](CCC(N)=O)C(=O)N[C@@H](CC(N)=O)C(=O)N[C@@H](CCCNC(=N)N)C(=O)N[C@@H](CCCNC(=N)N)C(=O)N[C@@H](CCSC)C(=O)N[C@@H](CCCCN)C(=O)N[C@@H](Cc1c[nH]c2ccccc12)C(=O)N[C@@H](CCCCN)C(=O)N[C@@H](CCCCN)C(N)=O)[C@@H](C)CC)[C@@H](C)CC", "note": "[CAVPENET] (H-VVKIDFEDRQIKIWFQNRRMKWKK-NH2)", "values": [{"measurement": "cellular internalization", "setting": "[1]", "value": "demonstrated cellular internalization"}, {"measurement": "cellular internalization", "setting": "[2]", "value": "demonstrated cellular internalization"}]}, {"compound": "CCOC(=O)[C@@]1(CCCCCCOc2ccc(Cl)cc2)CO1", "note": "[Etomoxir]", "values": [{"measurement": "hepatotoxicity", "setting": "[3]", "value": "hepatotoxicity hampered definitive testing"}]}, {"compound": "COC[C@@H]([C@H](O)[C@H](O)C(=O)NCC[C@H](C)c1nc(/C=C/C[C@@H]2O[C@]3(C[C@@H](O)[C@@H]2C)O[C@H]([C@H](C[C@H](O)[C@H](C)[C@H](O)[C@H](C)/C=C(C)/C(C)=C/C=C/C(C)=C\\C#N)OC)[C@H](OP(=O)(O)O)C3(C)C)co1)N(C)C", "note": "[calyculin A]", "values": [{"measurement": "cancer cell apoptosis", "setting": "[4]", "value": "effectiveness in causing cancer cell apoptosis"}, {"measurement": "toxic effects", "setting": "[4]", "value": "significant toxic effects"}]}, {"compound": "CO[C@H]([C@H](O)CC(=O)[C@@H](C)[C@@H](O)CC[C@@H](C)[C@@H]1O[C@]2(CC[C@@H](C)[C@H](CC[C@H](C)C(C)=O)O2)CC[C@@H]1C)[C@H](OC(=O)C[C@@H](O)C1=C(C)C(=O)OC1=O)C(C)C", "note": "[tautomycin]", "values": [{"measurement": "cancer cell apoptosis", "setting": "[4]", "value": "effectiveness in causing cancer cell apoptosis"}, {"measurement": "toxic effects", "setting": "[4]", "value": "significant toxic effects"}]}, {"compound": "RQIKIWFQNRRMKWKK [Penetratin]", "values": [{"measurement": "toxic effects in cells", "setting": "[5]", "value": "absence of toxic effects"}]}]}
